The source of these data is patent US20080161278A1, “2-Azetidinyl-4-(1H-Pyrazol-3-Ylamino) Pyrimidines as Inhibitors of Insulin-Like Growth Factor-1 Receptor Activity” (ASTRAZENECA AB, priority 2005, published 2008).

The test system of this assay is murine fibroblasts (NIH3T3) over-expressing human IGF-1 receptor. As to the kind of experiment: Test (c): inhibition of IGF-stimulated cell proliferation (BrdU incorporation). The class given is cell-based. The note with it: Mus musculus. The protocol: c) Inhibition of IGF-Stimulated Cell Proliferation
The construction of murine fibroblasts (NIH3T3) over-expressing human IGF-1 receptor has been described by Lammers et al (EMBO J, 8, 1369-1375, 1989). These cells show a proliferative response to IGF-I which can be measured by BrdU incorporation into newly synthesised DNA. Compound potency was determined as causing inhibition of the IGF-stimulated proliferation in the following assay:
Compounds are initially dissolved in DMSO to 10 mM, followed by dilutions in DMEM+1% FCS+glutamine to give a range from […] in 1-0.00045% DMSO final concentration in assay well.
Exponentially growing NIH3T3/IGFR cells were harvested and seeded in complete growth medium into a flat-bottomed 96 well tissue culture grade plate (Costar 3525) at 1.2×10^4 cells per well in a volume of 100 μl.
Growth medium was carefully removed from each well using a multi-channel pipette. Wells were carefully rinsed three times with 200 μl with HBSS. 100 μl of starvation medium was added to each well and the plate was re-incubated for 24 hours.
50 μl of a 4× concentrate of test compound was added to appropriate wells. Cells were incubated for 30 minutes with compound alone before the addition of IGF. […]
The incorporation of BrdU in the cells (after a 4 h incorporation period) was assessed using the BrdU Cell Proliferation Elisa according to the manufacturer's protocol.

Regarding `Cc1cc(Nc2cc(C)[nH]n2)nc(N2CCC2c2cc(-c3ccccn3)no2)n1` (centres unmarked) [Example 4, 6-Methyl-2-{2-[3-(pyrid-2-yl)isoxazol-5-yl]azetidin-1-yl}-4-(5-methyl-1H-pyrazol-3-ylamino)pyrimidine], it took 0.06 µM to reach half-maximal inhibition (IC50).

In turn, `Cc1cc(Nc2cc(N3CCOCC3)nc(N3CCC3c3cc(-c4ccccn4)no3)n2)n[nH]1` (centres unmarked) [Example 2, 6-Morpholino-2-{2-[3-(pyrid-2-yl)isoxazol-5-yl]azetidin-1-yl}-4-(5-methyl-1H-pyrazol-3-ylamino)pyrimidine] gave a half-maximal inhibitory concentration (IC50) of 0.04 µM.
